Laboratory results from patent publication US7101878B1 (Agouron Pharmaceuticals, Inc., priority 1998, dated 2006).
Like-named read-outs stand apart in the source and are kept apart here.

Target: T1, human GnRH receptor (Homo sapiens, UniProt P30968)
T1 construct: expressed in transfected cells; host or cells: HEK 293 (hGnRH-R/293, from Dr. Stuart Sealfon)
T1 sequence (P30968 1-328): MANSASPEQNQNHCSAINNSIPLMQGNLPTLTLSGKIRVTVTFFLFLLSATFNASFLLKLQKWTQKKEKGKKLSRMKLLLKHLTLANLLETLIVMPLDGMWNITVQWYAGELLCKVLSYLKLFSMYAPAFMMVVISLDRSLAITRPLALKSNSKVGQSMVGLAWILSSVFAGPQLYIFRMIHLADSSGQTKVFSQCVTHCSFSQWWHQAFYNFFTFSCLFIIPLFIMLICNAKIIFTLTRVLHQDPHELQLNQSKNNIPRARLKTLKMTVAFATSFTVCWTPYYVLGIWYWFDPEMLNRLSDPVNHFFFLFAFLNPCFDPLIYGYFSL
Test: Radioligand binding, 125I-GnRH-A displacement, membranes of HEK 293 cells with human GnRH receptor
Settings: for IC50: read-out: hGnRH IC50; for remaining activity at 10 µM: 10 uM compound, read-out: S%R 10 uM hGnRHR
How it was run: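 Bound tracer was separated by filtration through polyethyleneimine-soaked GF/C filters and counted by liquid scintillation. IC50 from curve fitting; other species were tested under the same conditions.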

[1] = 1 uM, read-out: % Inhib. @ 1 uM hGnRH
[2] = 1 h, repeat of % Inhib. at 1 uM, read-out: Repeats @ 1 uM hGnRH
[3] = 1 h, substrate remaining, closer to zero = closer to 100% inhibition

SMILES | inhibition at 1 µM [1] [%] | inhibition at 1 µM [2] [%] | also measured
Cc1cc2c(cc1Cc1ccc(C(=O)N3CCN(c4ccccc4C#N)CC3)o1)C(C)(C)CCC2(C)C | -5 | 62 | –
Cc1cc2c(cc1Cc1ccc(C(=O)Nc3ccccc3C(=O)Nc3cnccn3)o1)C(C)(C)CCC2(C)C | -27 | -29 | –
COC(=O)CNC(=O)c1ccc(Cc2cc3c(cc2C)C(C)(C)CCC3(C)C)o1 [Compound 164] | – | – | IC50: 1.97 µM
Cc1cc2c(cc1Cc1ccc(C(=O)Nc3cccc(O)c3)o1)C(C)(C)CCC2(C)C [Compound 345] | – | – | remaining activity at 10 µM [3]: 40%
Cc1cc2c(cc1Cc1ccc(C(=O)NC(C)CCc3ccccc3)o1)C(C)(C)CCC2(C)C (stereo not shown) [Compound 423] | – | – | remaining activity at 1 µM (1 h, substrate remaining, 1 uM compound, closer to zero = closer to 100% inhibition, read-out: S%R 1 uM hGnRHR): 49%
Cc1cc2c(cc1Cc1ccc(C(=O)Nc3ccccc3C(=O)NCC(C)(C)CN(C)C)o1)C(C)(C)CCC2(C)C [Compound 344] | – | – | remaining activity at 10 µM [3]: 57%
COc1cc(OC)c([N+](=O)[O-])c(NC(=O)c2ccc(Cc3cc4c(cc3C)C(C)(C)CCC4(C)C)o2)c1[N+](=O)[O-] [Compound 173] | – | – | IC50: 2.8 µM
Cc1cc2c(cc1Cc1ccc(C(=O)N3CCN(c4ccccc4)CC3)o1)C(C)(C)CCC2(C)C [drawing 1121] | – | – | % Inhib. @ 1 uM hGnRH (1 uM): −6%; Repeats @ 1 uM hGnRH (repeat of % Inhib. at 1 uM): 6
COC(=O)c1ccc(OC)c(NC(=O)c2ccc(Cc3cc4c(cc3C)C(C)(C)CCC4(C)C)o2)c1 [Compound 361] | – | – | remaining activity at 10 µM [3]: 4%
Cc1cc2c(cc1Cc1ccc(C(=O)N(CC(O)c3ccccc3)C3CCCCC3)o1)C(C)(C)CCC2(C)C (stereo not shown) | -12 | -9 | –
Cc1cc2c(cc1Cc1ccc(C(=O)NCc3cccc(NC(=O)N(Cc4ccccc4)c4ccccc4)c3)o1)C(C)(C)CCC2(C)C [drawing 1029] | -4 | 2 | –
Cc1cc2c(cc1Cc1ccc(C(=O)NCc3cccc(-c4ccccc4)c3)o1)C(C)(C)CCC2(C)C [Compound 66] | – | – | IC50: 3.5 µM
Cc1cc2c(cc1Cc1ccc(C(=O)N3CCN(c4ccccc4[N+](=O)[O-])CC3)o1)C(C)(C)CCC2(C)C | -15 | -20 | –
N=C(N)NC[C@H]1CC[C@H](CNC(=O)c2ccc(Cc3ccccc3)o2)CC1 [Compound 34] | – | – | IC50: > 10 µM
Cc1cc2c(cc1Cc1ccc(C(=O)NCCC3OCCO3)o1)C(C)(C)CCC2(C)C [Compound 133] | – | – | IC50: 0.49 µM
Cc1cc(NCc2cccc(CNC(=O)c3ccc(Cc4cc5c(cc4C)C(C)(C)CCC5(C)C)o3)c2)nc(N)n1 [Compound 144] | – | – | IC50: 0.23 µM
COc1cc(OC)c(NC(=O)c2ccc(Cc3cc(C(C)=O)c(C)cc3C)o2)c(OC)c1 [Compound 230] | – | – | IC50: 0.58 µM
Cc1cc2c(cc1Cc1ccc(C(=O)NCCN3CCOCC3)o1)C(C)(C)CCC2(C)C [drawing 987] | 63 | 69 | –
Cc1cc2c(cc1Cc1ccc(C(=O)NC3CCCc4ccccc43)o1)C(C)(C)CCC2(C)C (stereo not shown) [drawing 1127] | 14 | 27 | –
Cc1cc2c(cc1Cc1ccc(C(=O)Nc3cccc(OC(F)(F)F)c3)o1)C(C)(C)CCC2(C)C [Compound 359] | – | – | remaining activity at 10 µM [3]: 55%

Second part, led by results:

inhibition at 1 µM [1] [%] | inhibition at 1 µM [2] [%] | SMILES | also measured
27 | 48 | Cc1cc2c(cc1Cc1ccc(C(=O)NCc3ccc(F)cc3Cl)o1)C(C)(C)CCC2(C)C | –
-1 | -9 | Cc1cc2c(cc1Cc1ccc(C(=O)NCCNCCNc3ccccc3)o1)C(C)(C)CCC2(C)C [drawing 1043] | –
-18 | 5 | Cc1cc2c(cc1Cc1ccc(C(=O)NCCSc3cc(C(F)(F)F)nc4ccccc34)o1)C(C)(C)CCC2(C)C | –
-6 | 16 | Cc1cc2c(cc1Cc1ccc(C(=O)NCc3cccc(C(F)(F)F)c3)o1)C(C)(C)CCC2(C)C | –
10 | 9 | Cc1cc2c(cc1Cc1ccc(C(=O)N(C)CCc3ccccc3)o1)C(C)(C)CCC2(C)C | –
30 | 44 | Cc1cc2c(cc1Cc1ccc(C(=O)NCCc3ccc([N+](=O)[O-])cc3)o1)C(C)(C)CCC2(C)C [drawing 1057] | –
